The text below walks through data of patent US12691109B2, “Bifunctional aggregation-induced emission luminogen for monitoring and killing of multidrug-resistant bacteria” (The Hong Kong University of Science and Technology, priority 2018, dated 2026).

Test in all cases: Antibacterial activity, MIC
What all share (format): cell-based

One assay relates to MDR K. pneumoniae. The note with it: clinical MDR isolate.
The next assay has as its system S. epidermidis. The note with it: laboratory-sensitive strain.
A further assay relates to K. pneumoniae. The note with it: laboratory-sensitive strain.
A further assay concerns S. aureus. The note with it: laboratory-sensitive strain.
A further assay concerns E. coli. The note with it: laboratory-sensitive strain.
The test system of another assay is MDR S. epidermidis. The note with it: clinical MDR isolate.
The test system of another assay is MDR S. aureus. The note with it: clinical MDR isolate.
The subject of the next assay is MDR E. coli. The note with it: clinical MDR isolate.

A value given as a limit tells only on which side of the number the result lay.

For Gentamicin, in the assay with MDR K. pneumoniae, the “MIC, MDR K. pneumoniae” value is >128 µg/mL. Besides, in the assay with S. epidermidis, the “MIC, S. epidermidis” value is <2 µg/mL. Besides, the “MIC, K. pneumoniae” value in the assay on K. pneumoniae is <2 µg/mL. In addition, the “MIC, S. aureus” value with S. aureus is <2 µg/mL. Further, the “MIC, E.coli” value in the assay on E. coli was <2 µg/mL. Moreover, in the assay on MDR S. epidermidis, the “MIC, MDR S. epidermidis” value is <2 µg/mL. In the assay on MDR S. aureus, the “MIC, MDR S. aureus” value was >128 µg/mL. For the same substance, the “MIC, MDR E.coli” value in the assay with MDR E. coli is >128 µg/mL.
As for Penicilin, the “MIC, MDR K. pneumoniae” value against MDR K. pneumoniae was >128 µg/mL. In addition, in the assay on S. epidermidis, the “MIC, S. epidermidis” value was <2 µg/mL. In the assay with K. pneumoniae, the “MIC, K. pneumoniae” value is 32 µg/mL. Besides, in the assay with S. aureus, the “MIC, S. aureus” value is <2 µg/mL. Also, the “MIC, E.coli” value against E. coli is <2 µg/mL. Also, in the assay on MDR S. epidermidis, the “MIC, MDR S. epidermidis” value was >32 µg/mL. In addition, the “MIC, MDR S. aureus” value in the assay on MDR S. aureus worked out at 64 µg/mL. In addition, the “MIC, MDR E.coli” value against MDR E. coli is >128 µg/mL.
In the case of Polymyxin, the “MIC, MDR K. pneumoniae” value against MDR K. pneumoniae is 64 µg/mL; against MDR K. pneumoniae (listed as polymyxin), > 64 µg/mL. In addition, the “MIC, S. epidermidis” value in the assay with S. epidermidis came out at 64 µg/mL. In addition, the “MIC, K. pneumoniae” value against K. pneumoniae is <2 µg/mL. Also, the “MIC, S. aureus” value with S. aureus is >128 µg/mL. Further, the “MIC, E.coli” value against E. coli worked out at 16 µg/mL. For the same substance, the “MIC, MDR S. epidermidis” value with MDR S. epidermidis was >128 µg/mL. The “MIC, MDR S. aureus” value in the assay with MDR S. aureus was >128 µg/mL. The “MIC, MDR E.coli” value against MDR E. coli is 32 µg/mL; with MDR E. coli (listed as polymyxin) it was > 32 µg/mL.
